# How the values were obtained:
# [1] = tested on: tau (pSerine202, pThreonine231, pThreonine181); test: LPS-induced tau phosphorylation in postmortem human hippocampal slices; assay type: cell-based; conditions: 1 nM compound, 1 hour
# Method: The three phosphoepitopes of tau were detected in immunoprecipitates using specific antibodies using Western blots (WB).
# The slices are carefully separated in 10 ml of oxygenated ice-cold dissection medium with two pairs of fine forceps and gentle shaking.
# The reaction was terminated by diluting with 1.5 ml of ice-cold 1 mM EDTA-containing Ca^2+-free Kreb's-Ringer and centrifuged for 10 minutes at 15,000×g (4° C.).
# After removal of the supernatant, the slices were homogenized to prepare post-mitochondrial (P2) fraction.
# The anti-tau immunocomplexes were enriched by incubation with 50 μl of protein A/G-conjugated agarose beads at 4° C. and centrifugation.
# [2] = molecular target: T1, FLNA (Homo sapiens, UniProt P21333); test: [3H]NLX competition binding to FLNA in SK-N-MC cell membranes; conditions: read-out: IC50-L, inhibition of [3H]NLX binding
# T1 construct: validate the use of that 5-mer peptide as a surrogate for the complete molecule in the assays carried out herein; host or cells: A7 cells
# [3] = tested on: α7nAChR (Aβ42-α7nAChR interaction); test: Aβ42 affinity for α7nAChR in SK-N-MC cells; assay type: binding, human
# [4] = tested on: NMDAR; assay type: cell-based, rat; conditions: slice cultures, 0.1 μM Aβ42
# [5] = tested on: α7nAChR; assay type: cell-based, human; conditions: AD and Aβ42-treated control brain slices
# [6] = tested on: ERK2; test: Aβ42-induced ERK2 activation (pERK2) in rat frontal cortical synaptosomes; assay type: cell-based; conditions: simultaneous treatment
# Method: FIG. 3 in two panels as FIG. 3A and FIG. 3B, illustrates that FLNA-binding compounds reduce Aβ-induced α7nAChR-mediated ERK2 signaling. In the same treated synaptosomes used in FIG. 2, levels of phosphorylated (activated) ERK2 were measured in immunoprecipitates of ERK2. […] Immunoprecipitates were determined by Western blotting (FIG. 3A) and quantified for four compounds by densitometry (FIG. 3B). n=3.
# Phosphorylation of ERK2 indicates its activation, which leads to tau phosphorylation.
# [7] = tested on: α7nAChR (Aβ42-α7nAChR interaction); test: Aβ42 affinity for α7nAChR in biotinylated synaptic membranes from postmortem frontal cortices; assay type: binding, human
# Text: FIG. 27 in two panels illustrates that Compound C0105 reduces affinity of the Aβ42-α7nAChR interaction. […] Data are means±SEM. n=11 for postmortem control tissue; n=6 for SK-N-MC cells.
# [8] = tested on: NMDAR; test: Levels of signaling molecules associated with NMDAR (NR1) in slice cultures; assay type: cell-based, rat; conditions: 0.1 μM Aβ42
# Method: NMDAR activation and signaling was initiated by incubation of 6 slices with either 0.3 mM Mg^2+ containing KR (LMKR; basal) or LMKR containing 10 μM NMDA and 1 μM glycine at 37° C. for 30 minutes.
# Ligand stimulation was terminated by the addition of 1 ml of ice-cold Ca^2+-free K-R containing mixture of protein phosphatase inhibitors, 0.5 mM EGTA and 0.1 mM EDTA. Brain slices were harvested by a brief centrifugation and were homogenized in 0.25 ml of ice-cold immunoprecipitation buffer. The homogenates were centrifuged at 1000×g for 5 minutes (4° C.) and the supernatant (post-mitochondrial fraction) was sonicated for 10 seconds on ice.
# The resultant lysates were cleared by centrifugation at 50,000×g for 5 minutes and diluted with 0.75 ml of immunoprecipitation buffer. Protein concentrations were measured by Bradford method (Bio-Rad).
# To determine the association of NMDARs with PSD-95, as well as NMDAR signaling, the levels of NMDAR subunits, PSD-95 and NMDAR-associated signaling molecules were measured in anti-NR1 immunoprecipitates. In these studies, brain slice lysates (100 μg) were immunoprecipitated overnight at 4° C. with 2 μg of immobilized anti-NR1 onto covalently conjugated protein A-agarose beads (Pierce-ENDOGEN). […]
# [9] = tested on: α7nAChR; assay type: cell-based, rat
# [10] = tested on: voltage-gated Ca2+ channel mediated Ca2+ influx; assay type: in vivo, mouse; conditions: 10 mg/kg twice daily
# [11] = tested on: tau phosphorylated at S202, T231 and T181; test: Postmortem human frontal cortical synaptosomes: Aβ42-induced tau phosphorylation with VAKGL decoy; assay type: cell-based; conditions: postmortem control frontocortical tissue
# Method: FIG. 34 VAKGL (SEQ ID NO: 1) pentapeptide (10 μM) blocks Compound C0105's prevention of tau phosphorylation. Again using postmortem frontal cortical synaptosomes, the VAKGL pentapeptide blocks C0105's reduction in tau phosphorylation at all three phosphorylation sites found in neurofibrillary tangles. Western blots (FIG. 34A), in which numerals outside of and to the left of the blots are as discussed before, were analyzed by densitometric quantitation (FIG. 34B). Data are means±SEM. n=3. *p<0.01 vs. the respective basal level; # p<0.01 vs. Aβ42-exposed tissues.
# In postmortem control frontocortical tissue, the FLNA pentapeptide binding site of Compound C0105 (VAKGL of SEQ ID NO: 1) was used as a decoy to block the attenuation of FLNA association with α7nAChR and TLR4 by Compound C0105 (FIG. 33).
# [12] = tested on: Aβ42-α7nAChR complexes; test: Postmortem human frontal cortex: Aβ42-α7nAChR complexes; assay type: cell-based; conditions: AD and Aβ42-treated control tissue; 0.1 and 1 nM
# Method: Postmortem frontal cortex tissues were gradually thawed (from −80° C. to −20° C.) and were sliced using a chilled McIlwain tissue chopper (200 μm×200 μm×3 mm). […] Following two additional washes with 1 ml of ice-cold K-R, brain slices were suspended in 1 ml of K-R.
# Incubation continued for 1 hour in the dark to minimize light destruction of the test agents. […] Reaction was terminated by the addition of 1.5 ml of ice-cold Ca^2+-free K-R. Tissue slices were harvested by a brief centrifugation and used as the tissue sources for various assays.
# [13] = tested on: FLNA-α7nAChR association; test: FLNA association with α7nAChR in organotypic frontocortical slice cultures; assay type: cell-based, rat; conditions: 100 nM Aβ42, 16 hours, compound added simultaneously
# Method: Tissue was harvested and solubilized, and a specific antibody against FLNA was used to immunoprecipitate FLNA and associated proteins. The FLNA immunoprecipitate was size-fractionated using SDS-PAGE, transferred and probed with specific antibodies directed against each of the following receptors: α7nAChR, TLR4, IR and MOR.
# Rat brain slice organotypic culture methods were modified from those published previously. [Adamchik et al., Brain Res Brain Res Protoc 5:153-158 (2000).] FCX slices ([…]) were transferred to sterile, porous Millicell-CM inserts (0.4 μm). Each culture insert unit contained two brain slices and was placed into individual wells of a 12-well culture tray in 2 ml medium: 50% MEM with Earl's salts, 2 mM L-glutamine, 25% Earl's balanced salt solution, 6.5 g/l D-glucose, 20% fetal bovine serum (FBS), 5% horse serum, 25 mM HEPES buffer, pH 7.2, and […]. […]
# The level of FLNA-associated α7nAChRs was determined using a co-immunoprecipitation/Western blotting method as described previously. […] The levels of FLNA-associated α7nAChR, TLR4, IR and MOR were assessed by Western blotting using specific antibodies directed against the respective proteins and the blot stripped and re-probed for FLNA for immunoprecipitation/loading control.
# T1 sequence (P21333 whole entry): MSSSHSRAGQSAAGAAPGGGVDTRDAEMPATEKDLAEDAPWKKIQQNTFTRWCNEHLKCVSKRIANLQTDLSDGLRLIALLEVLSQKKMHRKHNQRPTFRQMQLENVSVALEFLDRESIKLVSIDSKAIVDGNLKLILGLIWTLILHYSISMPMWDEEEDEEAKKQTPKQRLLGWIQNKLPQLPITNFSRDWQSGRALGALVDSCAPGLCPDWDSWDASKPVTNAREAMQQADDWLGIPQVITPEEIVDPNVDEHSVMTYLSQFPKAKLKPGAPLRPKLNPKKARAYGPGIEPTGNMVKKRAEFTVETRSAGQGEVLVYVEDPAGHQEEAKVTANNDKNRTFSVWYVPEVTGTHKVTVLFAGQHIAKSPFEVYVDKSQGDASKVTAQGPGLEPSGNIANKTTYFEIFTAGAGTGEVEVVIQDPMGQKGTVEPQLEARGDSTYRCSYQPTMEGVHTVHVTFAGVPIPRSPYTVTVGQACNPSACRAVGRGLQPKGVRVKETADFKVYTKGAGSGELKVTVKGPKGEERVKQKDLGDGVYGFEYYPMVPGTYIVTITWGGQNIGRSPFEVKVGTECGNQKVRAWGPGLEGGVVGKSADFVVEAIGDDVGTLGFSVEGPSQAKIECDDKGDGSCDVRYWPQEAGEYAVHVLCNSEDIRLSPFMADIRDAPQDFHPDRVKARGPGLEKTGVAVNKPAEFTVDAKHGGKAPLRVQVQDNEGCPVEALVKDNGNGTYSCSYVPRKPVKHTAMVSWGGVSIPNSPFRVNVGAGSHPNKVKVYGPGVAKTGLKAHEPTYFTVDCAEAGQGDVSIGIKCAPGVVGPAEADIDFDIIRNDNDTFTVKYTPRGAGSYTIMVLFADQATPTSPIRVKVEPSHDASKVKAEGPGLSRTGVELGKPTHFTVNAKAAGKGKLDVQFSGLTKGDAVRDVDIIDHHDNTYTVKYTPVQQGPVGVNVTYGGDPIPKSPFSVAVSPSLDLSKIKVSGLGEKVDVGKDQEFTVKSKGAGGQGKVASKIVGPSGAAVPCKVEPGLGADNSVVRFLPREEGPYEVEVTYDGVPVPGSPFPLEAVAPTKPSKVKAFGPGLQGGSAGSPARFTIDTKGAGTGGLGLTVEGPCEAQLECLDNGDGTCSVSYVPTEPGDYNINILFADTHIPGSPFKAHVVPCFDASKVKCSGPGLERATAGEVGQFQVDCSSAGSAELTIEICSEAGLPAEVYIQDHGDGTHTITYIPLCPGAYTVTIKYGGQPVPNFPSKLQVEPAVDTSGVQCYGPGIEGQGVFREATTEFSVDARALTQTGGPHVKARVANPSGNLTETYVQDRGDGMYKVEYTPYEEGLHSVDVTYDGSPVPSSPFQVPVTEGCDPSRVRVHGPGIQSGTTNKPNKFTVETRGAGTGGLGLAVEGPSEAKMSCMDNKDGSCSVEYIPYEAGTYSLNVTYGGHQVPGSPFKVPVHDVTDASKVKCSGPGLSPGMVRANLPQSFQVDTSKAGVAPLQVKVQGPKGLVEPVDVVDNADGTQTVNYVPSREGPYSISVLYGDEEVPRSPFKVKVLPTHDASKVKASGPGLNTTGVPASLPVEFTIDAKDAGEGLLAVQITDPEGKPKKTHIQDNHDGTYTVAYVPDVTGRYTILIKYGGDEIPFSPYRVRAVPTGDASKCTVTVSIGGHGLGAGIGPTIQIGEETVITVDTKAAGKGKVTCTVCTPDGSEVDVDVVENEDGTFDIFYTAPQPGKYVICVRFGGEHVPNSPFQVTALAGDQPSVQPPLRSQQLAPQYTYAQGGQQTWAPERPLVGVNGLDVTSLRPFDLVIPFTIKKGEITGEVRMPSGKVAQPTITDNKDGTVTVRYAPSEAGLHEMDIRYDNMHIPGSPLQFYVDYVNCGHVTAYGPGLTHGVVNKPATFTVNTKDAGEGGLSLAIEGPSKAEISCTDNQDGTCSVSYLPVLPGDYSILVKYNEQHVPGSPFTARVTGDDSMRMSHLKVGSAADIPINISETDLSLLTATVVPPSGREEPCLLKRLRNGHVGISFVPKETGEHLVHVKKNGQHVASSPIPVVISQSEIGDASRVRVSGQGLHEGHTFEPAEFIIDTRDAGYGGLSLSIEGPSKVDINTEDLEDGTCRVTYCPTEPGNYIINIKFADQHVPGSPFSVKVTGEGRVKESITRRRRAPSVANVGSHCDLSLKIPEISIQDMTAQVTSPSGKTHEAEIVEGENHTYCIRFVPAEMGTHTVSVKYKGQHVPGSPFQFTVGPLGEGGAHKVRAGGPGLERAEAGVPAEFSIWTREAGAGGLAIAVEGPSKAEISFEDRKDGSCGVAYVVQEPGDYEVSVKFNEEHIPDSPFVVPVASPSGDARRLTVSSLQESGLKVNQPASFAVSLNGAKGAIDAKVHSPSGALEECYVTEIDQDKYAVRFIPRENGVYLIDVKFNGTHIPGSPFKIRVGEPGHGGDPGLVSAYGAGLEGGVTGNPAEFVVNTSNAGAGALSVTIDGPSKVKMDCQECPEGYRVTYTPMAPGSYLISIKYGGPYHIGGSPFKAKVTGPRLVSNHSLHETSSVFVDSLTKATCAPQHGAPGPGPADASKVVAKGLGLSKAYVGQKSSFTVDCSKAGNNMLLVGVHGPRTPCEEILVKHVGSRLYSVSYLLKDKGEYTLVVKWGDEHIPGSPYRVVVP
structure (smiles),measurement,setting,value
CN1CCC2(CC1)NCC(=O)N2Cc1ccccc1 [Compound C0105],LPS-induced tau phosphorylation,[1],reduces LPS-induced tau phosphorylation
same,IC50,[2],0.111 nM
same,Reduction of Aβ42 binding affinity for α7nAChR,"[3]; fresh SK-N-MC cells, n=6","10,000 fold"
same,Kd,"[3]; read-out: Aβ42 binding affinity for α7nAChR with Compound C0105, SK-N-MC cells",1 nM
same,Aβ42-induced impairment in NMDAR function (calcium influx after NMDA and glycine),[4],completely prevented by 1 and 10 nM
same,Functioning of α7nAChR (calcium influx after receptor stimulation),[5],preserves functioning
same,ERK2 activation (pERK2),[6],greatly suppressed
same,Reduction of affinity of the Aβ42-α7nAChR interaction,[7]; FIG. 27: postmortem tissue and SK-N-MC cells,"1,000-10,000 fold"
same,Reduction of Aβ42 binding affinity for α7nAChR,"[7]; postmortem control tissue, biotinylated synaptic membranes, n=11",1000 fold
same,Kd,"[7]; read-out: Aβ42 binding affinity for α7nAChR after Compound C0105 incubation, postmortem control tissue",16 nM
same,Levels of six signaling molecules associated with NR1 after NMDA and glycine,[8],fully restored function
same,Aβ42-induced impairment in α7nAChR function (calcium influx after PNU282987),[9],fully restoring function
same,K+-evoked calcium influx,[10],restored it
same,Aβ42-induced tau phosphorylation,[11],inhibits tau phosphorylation
same,Aβ42-α7nAChR complexes,[12],reduces Aβ42-α7nAChR complexes
same,Aβ42-induced increase in FLNA-α7nAChR association,[13],"reduced the Aβ42-induced increase in FLNA-α7nAChR association at 0.1, 1 and 10 nM"
